From PubChem BioAssay AID652053 (Broad Institute, 2013) come the findings set out here.

In the experiment the test system is Huh7 psiCHECK-miR122 Renilla luciferase reporter, 48 h. Description: suppression of miR-122 activity, Renilla luciferase sensor – cell-based, Huh7 psiCHECK-miR122, cherry-pick, dose response (AID 652053).

As for `CCN1C(=O)c2cccc3c(S(=O)(=O)NCCc4c[nH]c5ccccc45)ccc1c23`, the AC40 was 3.09 µM.
Turning to `Cc1ccc(C(C)(C)C)cc1S(=O)(=O)Nc1cccc(S(=O)(=O)NC2=NCCC2)c1`, the AC40 is 5.86 µM.
Take `Cc1ccc(C(=O)NCc2ccncc2)cc1S(=O)(=O)Nc1cccc(C)c1C`: the AC40 is 1.93 µM.
For `Cc1ccc(-c2nnc(Nc3ccccc3)c3ccccc23)cc1S(=O)(=O)NCC1CCCO1` (stereo not given), the AC40 was 0.63 µM.
For `Cc1ccc(S(=O)(=O)N(C)C[C@H]2Oc3ccc(NC(=O)Nc4ccc(C(F)(F)F)cc4)cc3C(=O)N([C@H](C)CO)C[C@H]2C)cc1`, the AC40 was 5.41 µM.
Then `CN1C(=O)c2cc(NC(=O)Cc3ccccc3)ccc2OC[C@@H]2O[C@H](CC(=O)NCc3ccc(Cl)cc3)CC[C@@H]21`, with under 0.26 µM; and `Cc1cc(C)c(S(=O)(=O)Nc2ccc(O)cc2)cc1C`, with 3.45 µM.
As to `CCc1c(C(=O)NC2CCCc3ccccc32)[nH]c(C)c1C(C)=O` (stereo not given), the AC40 was 9 µM.
As for `Cc1ccc(S(=O)(=O)Nc2ccc3c4c(cccc24)CC3)c(C)c1`, the AC40 is 6.8 µM.
For `Cc1ccc(C)c(S(=O)(=O)Nc2ccc3sc(C)nc3c2)c1`, the AC40 is 1.5 µM.
Regarding `CC(C)c1ccc(NC(=O)Cc2cn(C)c3ccccc23)cc1`, the AC40 was 11.9 µM.
For the molecule `CCCCNS(=O)(=O)c1ccc(OC)c(Cl)c1Cl`, the AC40 is 3.99 µM.
Consider `CCOc1ccc(Br)cc1S(=O)(=O)NC1CCCC1`, for which the AC40 was 1.29 µM.
For `O=C(CN(C1CCCCC1)S(=O)(=O)c1ccc(F)cc1)Nc1ccc2c(c1)OCO2`, the AC40 is 6.36 µM.
In the case of `Cc1ccc(-c2cnc3c(c2)C(=O)N([C@H](C)CO)C[C@@H](C)[C@H](CN(C)Cc2ccccc2F)O3)cc1`, the AC40 was 2.64 µM.
To `CCN(CC)S(=O)(=O)c1ccc(N2CCOCC2)c(NS(=O)(=O)c2ccc(C(C)C)cc2)c1` belongs 5.51 µM; to `Cc1ccc(C)c(S(=O)(=O)NCCCc2ccccc2)c1`, 3.15 µM.
For the molecule `O=C(Nc1nc2ccc(Cl)cc2s1)c1ccco1`, the AC40 was 20.8 µM.
In the case of `C/C(=N\NC(=O)c1cccc(S(=O)(=O)Nc2cccc(Cl)c2)c1)c1cccs1`, the AC40 was 3.3 µM.
To `CC(=O)c1c(C)[nH]c(C(=O)Nc2ccc(C)c(S(=O)(=O)Nc3ccc(C)cc3C)c2)c1C` belongs 8.45 µM; to `CN1C(=O)c2cccc3c(S(=O)(=O)NCCc4ccccc4)ccc1c23`, 0.281 µM.
To `Cc1ccc(S(=O)(=O)N2CC[C@@H]3[C@@H](CO)Nc4ccc(-c5ccccc5F)cc4[C@@H]32)cc1` belongs 1.69 µM; to `COc1ccc(-c2c(O)c(C#N)c(-c3ccccc3)n(-c3ccc(OC)cc3)c2=O)cc1`, 20 µM.
Consider `C[C@H](CO)N1C[C@H](C)[C@H](CN(C)Cc2ccc(C(=O)Nc3ccccc3N)cc2)Oc2ccc(NC(=O)Nc3ccccc3)cc2CC1=O`, for which the AC40 is 5.91 µM.
With `CCOc1ccc(NS(=O)(=O)c2ccc(NC(=S)NC(=O)C(C)C)cc2)cc1`, the AC40 was 5.48 µM.
Take `COc1ccccc1CNC(=O)C[C@H]1CC[C@H]2[C@@H](COc3ccc(NS(=O)(=O)c4ccc(C)cc4)cc3C(=O)N2C)O1`: the AC40 was 21.5 µM.
In the case of `COc1ccc(-c2nc3ccccn3c2NC2CCCCC2)cc1SC1CCCCC1`, the AC40 was 7.13 µM.
Consider `COc1ccc(CN(C)C[C@H]2Oc3c(NC(=O)NC4CCCCC4)cccc3C(=O)N([C@H](C)CO)C[C@@H]2C)cc1`, for which the AC40 is 5.06 µM.
For the molecule `CCCNC(=O)C[C@@H]1CC[C@H]2[C@H](COc3ccc(NC(=O)c4ccc5c(c4)OCO5)cc3C(=O)N2C)O1`, the AC40 is 2.21 µM.
To `COc1ccc(OC)c(S(=O)(=O)Nc2cc3c4c(c2)CCN4C(=O)CC3)c1` belongs 2.85 µM; to `Cc1ccc(S(=O)(=O)NC23CC4CC(CC(C4)C2)C3)cc1`, 2.15 µM.
For `CCOc1ccc(Br)cc1S(=O)(=O)NCc1ccncc1`, the AC40 was 1.9 µM.
To `COc1ccc(C2C(Oc3ccccc3)C(=O)N2c2cc(C)ccc2C)cc1OC` (stereo not given) belongs 23.1 µM; to `Cc1sc(NC(=O)c2ccccc2)c(C(c2ccc(Cl)cc2)N2CCN(CCO)CC2)c1C` (stereo not given), 22.3 µM; to `S=C(NCC1CCCCC1)Nc1ccc(Oc2ccccc2)cc1`, 14.6 µM.
On to `COc1cc(CN(C)C(=O)C(=O)c2c[nH]c3ccccc23)ccc1O`, for which the AC40 is 6.67 µM.
Then `C[C@H](CO)N1C[C@H](C)[C@H](CN(C)Cc2ccc(C(=O)Nc3ccccc3N)cc2)Oc2ccc(NC(=O)Nc3ccc(F)cc3)cc2CC1=O`, with 9.84 µM; and `CC(=O)N1CCOc2ccc(S(=O)(=O)NCCc3cccc(C)c3)cc21`, with 4.01 µM.
To `COc1cccc(C(=O)N2C[C@H]3[C@@H](c4ccccc42)[C@H](CO)N3C(=O)c2ccc(F)cc2)c1` belongs 33.6 µM.
To `COc1ccc(S(=O)(=O)NCc2ccccn2)cc1NC(=O)c1ccccc1C` belongs 10.2 µM.
Consider `CCOc1ccc(S(=O)(=O)NCc2ccco2)c2ccccc12`, for which the AC40 was 3.06 µM.
On to `O=C(Nc1ccc(S(=O)(=O)NCc2ccccc2)cc1)Nc1ccc2c(c1)OCO2`, for which the AC40 was 2.08 µM.
As for `COc1ccc(NS(=O)(=O)c2cc(NC(=O)c3cccc(OCc4c(C)noc4C)c3)ccc2OC)cc1`, the AC40 is 2.57 µM.
Then `COc1ccc(C)cc1NS(=O)(=O)c1ccc2c(c1)N(C)CCO2`, with 1.54 µM; and `Cc1noc(C)c1NC(=O)Nc1cccc2c1O[C@@H](CN(C)Cc1ccc(Cl)c(Cl)c1)[C@@H](C)CN([C@H](C)CO)C2=O`, with 0.826 µM.
Then `O=S(=O)(NCCc1ccncc1)c1cc(Br)ccc1F`, with 2.66 µM; and `COc1ccc(CN(C(=O)c2ccc(-c3ccccc3)[nH]2)C(C(=O)NCC2CCCO2)c2ccc(C)o2)cc1` (stereo not given), with 5.58 µM.
As to `O=C(NNS(=O)(=O)c1ccc(Cl)cc1)c1cccs1`, the AC40 was 16.6 µM.
On to `CCN(CC)S(=O)(=O)c1cc(NS(=O)(=O)c2cccc(Cl)c2)ccc1C`, for which the AC40 is 8.63 µM.
For `CCCNC(=O)C[C@H]1CC[C@H]2[C@H](COc3ccc(NC(=O)Cc4cccs4)cc3C(=O)N2C)O1`, the AC40 was 2.21 µM.
For `CCc1cccc2c(C(=O)CN3C(=O)NC4(CCCCC4)C3=O)c[nH]c12`, the AC40 is 6.01 µM.
Take `Cc1ccc(CN2CCSc3ccc(C(=O)NCc4ccco4)cc32)cc1`: the AC40 was 11.3 µM.
On to `Cc1ccc(S(=O)(=O)Nc2c(C)ccc3nsnc23)cc1`, for which the AC40 is 17.6 µM.
To `COc1ccc(NS(=O)(=O)c2cc(NC(=O)[C@@H](NC(=O)c3ccccc3)C(C)C)ccc2C)cc1` belongs 2.3 µM; to `O=S(=O)(Nc1ccc(N2CCOCC2)cc1)c1cc(Cl)ccc1Cl`, 26.6 µM; to `Cc1ccc(S(=O)(=O)NC(=NCc2ccccc2)c2ccc(F)cc2)cc1`, 5.08 µM.
Then `CCOc1ccccc1C(=O)N1CCN(c2cccc(Cl)c2)CC1`, with 11.6 µM; and `C[C@H](CO)N1C[C@H](C)[C@@H](CN(C)Cc2ccc(C(F)(F)F)cc2)Oc2c(NC(=O)C3CCCCC3)cccc2C1=O`, with 0.596 µM.
With `COc1ccc(NS(=O)(=O)c2cc(NS(=O)(=O)c3cccs3)ccc2C)cc1`, the AC40 was 4.04 µM.
`C[C@@H]1CN([C@@H](C)CO)C(=O)c2cccc(NC(=O)c3ccncc3)c2O[C@@H]1CN(C)C`: the AC40 was 12 µM.
To `CCOc1cc(C)c(S(=O)(=O)Nc2ccc3cn[nH]c3c2)cc1C` belongs 1.24 µM; to `C[C@@H]1CN([C@H](C)CO)C(=O)c2cc(NC(=O)Cc3ccccc3)ccc2O[C@@H]1CN(C)S(=O)(=O)c1ccc(Cl)cc1`, 1.31 µM.
On to `CCOc1ccccc1N1CCN(C(=O)c2cccc(-c3ccc(O)cc3)c2)CC1`, for which the AC40 was 0.659 µM.
Turning to `CCOc1ccccc1N1CCN(C(=O)c2cc3ccccc3cc2OC)CC1`, the AC40 was 4.78 µM.
In the case of `CC(NC(=O)COc1ccccc1)C(=O)OCC(=O)c1cc2ccccc2o1` (stereo not given), the AC40 was 33.5 µM.
Regarding `C[C@@H]1CN([C@H](C)CO)C(=O)c2cc(N(C)C)ccc2O[C@@H]1CN(C)S(=O)(=O)c1ccc(Cl)cc1`, the AC40 is 6.57 µM.
As for `CC(C)CC#Cc1ccc2c(c1)O[C@H](CN(C)C(=O)Nc1ccccc1F)[C@@H](C)CN([C@@H](C)CO)S2(=O)=O`, the AC40 is 2.15 µM.
Consider `CN(C)Cc1ccccc1CNC(=O)c1cccc(S(=O)(=O)Nc2ccc3c(c2)OCO3)c1`, for which the AC40 is 2.15 µM.
On to `C[C@@H]1CN([C@H](C)CO)C(=O)c2cccc(NC(=O)Nc3ccccc3)c2O[C@@H]1CN(C)Cc1ccc(C(=O)Nc2ccccc2N)cc1`, for which the AC40 is 20.5 µM.
In the case of `COC(=O)c1ccc(Nc2nnc(-c3ccc(C)c(S(=O)(=O)NCC4CCCO4)c3)c3ccccc23)cc1` (stereo not given), the AC40 was 0.761 µM.
Turning to `N#CC1c2ccccc2-c2ccccc2N1C(=O)c1ccccc1` (stereo not given), the AC40 is 8.39 µM.
Consider `CCCCOc1ccc(S(=O)(=O)Nc2ccc(NC(C)=O)cc2)cc1`, for which the AC40 is 10.3 µM.
On to `O=S(=O)(c1ccccc1)c1cc(O)ccc1O`, for which the AC40 was 11.5 µM.
For `COc1ccc2nc(Nc3nc(CSc4nc5ccccc5[nH]4)cc(=O)[nH]3)nc(C)c2c1`, the AC40 was 9.96 µM.
Consider `COc1ccc(NS(=O)(=O)c2cc(NC(=O)COc3ccc(OC)cc3)ccc2N2CCOCC2)cc1`, for which the AC40 was 2.62 µM.
In the case of `CN1c2ccc(-c3ccc(F)cc3)cc2[C@H]2[C@H](CCN2S(=O)(=O)c2cccc(F)c2)[C@H]1CO`, the AC40 was 8.83 µM.
As for `CCOc1cc(C)c(S(=O)(=O)Nc2ccc(Cl)cn2)cc1C`, the AC40 is 4.04 µM.
Consider `CN1c2ccc(-c3ccccc3)cc2[C@H]2[C@H](CCN2S(=O)(=O)c2ccccc2F)[C@H]1CO`, for which the AC40 was 3.63 µM.
As for `CCOc1cc(C)c(C(C)C)cc1S(=O)(=O)n1ccc(C)n1`, the AC40 is 7.45 µM.
Then `Cc1cc(C(C)(C)C)cc(S(=O)(=O)Nc2ccc(C(=O)O)cc2)c1C`, with 9.72 µM.
